Measurements published in patent US5681738A, “Use of 10-oxo-trans-8-decenoic acid in mushroom cultivation” (The Penn State Research Foundation, priority 1992, dated 1997).

Columns and labels:
[1] = system: separated stipes of Agaricus bisporus; test: Elongation of separated stipes on test agar containing mushroom supernatants, 6-day storage at 12° C.; set-up: species or system Agaricus bisporus (off-white); settings: as a function of added ODA
Method: Whole stipes were cut at the lower portions to a length of 7-9 mm to standardize the sample, and marked at the middle of the veil, which is the location where the veil attaches to the stipe, to indicate the upper and lower stipes. The separated stipes contained 2-4 mm of upper stipes and 5-6 nun of lower stipes. […] The length of separated stipes and upper stipes was measured using a vernier caliper before and after certain days of storage.
Sterile mushroom supernatants (25 mL), phosphate buffer and deionized H2 O were added aseptically into 175 mL agar solution prior to dispensing into dishes. […] The concentrations of ODA in the 2% agar were calculated to be 3.4×10^-6, 6.0×10^-5, and 1.2×10^-4 M for treatments 3, 4 and 5. […]

[2] = system: separated stipes of Agaricus bisporus; test: Elongation of upper stipes of separated stipes (upper and lower portions) on test agar containing ODA, 3-day storage at 12° C.; set-up: species or system Agaricus bisporus (hybrid off-white); settings: for % Elongation of upper stipes, Mean: control 14.4
Method: Four type strains of mushrooms were used: the white, off-white, hybrid white (U3) and hybrid off-white (U1). Mushrooms from each flush were harvested before the veil was broken. Freshly harvested mushrooms were transported within about one hour after harvest to Borland Laboratory and placed in the pilot plant cold room (4° C.) for about two hours before sampling. Mushrooms were sorted on the basis of size and appearance. Diseased, damaged, misshapen, veil-opened and extremely large or small mushrooms (>40 or <25 mm in cap diameter) were discarded. Mushrooms of uniform size (25-40 mm) and maturity of the button stage (stage 1, veil intact tightly) were used in this research.
Whole stipes were cut at the lower portions to a length of 7-9 mm to standardize the sample, and marked at the middle of the veil, which is the location where the veil attaches to the stipe, to indicate the upper and lower stipes. The separated stipes contained 2-4 mm of upper stipes and 5-6 nun of lower stipes. For the study using separated upper stipes, mushrooms were dissected directly into upper stipes with a length of 3-5 mm. The separated stipes or upper stipes were put upside down on the test agar containing various mushroom supernatants or ODA concentrations; i.e., the upper sides in contact with the agar surface (FIG. 12). All petri dishes were covered and stored at 12° C. The length of separated stipes and upper stipes was measured using a vernier caliper before and after certain days of storage.
Sterile ODA solutions were aseptically added into the autoclaved agar solutions to achieve the desired final ODA concentrations. The agar solution was then dispensed into dishes, ca 20.8 mL per dish. The level of ODA tested included 10^-4, 10^-5, 10^-6, 10^-7, and 10^-8 M. Mushrooms (hybrid off-white) from 6 different crops were used to study their postharvest growth. In the first 2 experiments, mushroom stipes were measured after 4-day storage at 12° C. In order to prevent stipe deterioration and desiccation of the test agar, in the following experiments mushroom stipes were measured after 3-day storage at 12° C.
The experimental data were subjected to a single classification analysis of variance (AOV) for a completely randomized design (Steele et al., 1980). Fisher's protected least significant difference (LSD) was applied to separate the means. The level of significance used in this research was 0.05.
ODA stimulated the elongation of upper stipes in excess of the control, but the response occurred only when the lower portions were present. The additional elongation of upper stipes was stimulated by ODA at a concentration as low as 10^-8 M (0.00184 ppm).

O=C/C=C/CCCCCCC(=O)O [ODA, 10-oxo-trans-8-decenoic acid]
elongation of lower stipes (in words) [1]: no differences
minimal effective concentration ([2]; Agaricus bisporus, 72 h, 0.00184 ppm, separated stipes with lower portions, read-out: lowest concentration stimulating additional elongation of upper stipes): 0.01 µM
% Elongation of upper stipes, Mean ([2]; ODA 10^-4 M (18.4 ppm)): 30.0%
% Elongation of upper stipes ([2]; ODA 10^-4 M (18.4 ppm), rep 1, control 14.5): 25.1%
% Elongation of upper stipes ([2]; ODA 10^-4 M (18.4 ppm), rep 2, control 11.6): 30.5%
% Elongation of upper stipes ([2]; ODA 10^-4 M (18.4 ppm), rep 3, control 17.1): 34.2%
% Elongation of upper stipes, Mean ([2]; ODA 10^-5 M (1.84 ppm)): 27.7%
% Elongation of upper stipes ([2]; ODA 10^-5 M (1.84 ppm), rep 1, control 14.5): 30.7%
% Elongation of upper stipes ([2]; ODA 10^-5 M (1.84 ppm), rep 2, control 11.6): 25.0%
% Elongation of upper stipes ([2]; ODA 10^-5 M (1.84 ppm), rep 3, control 17.1): 27.4%
% Elongation of upper stipes, Mean ([2]; ODA 10^-6 M (0.184 ppm)): 29.5%
% Elongation of upper stipes ([2]; ODA 10^-6 M (0.184 ppm), rep 1, control 14.5): 27.5%
% Elongation of upper stipes ([2]; ODA 10^-6 M (0.184 ppm), rep 2, control 11.6): 24.7%
% Elongation of upper stipes ([2]; ODA 10^-6 M (0.184 ppm), rep 3, control 17.1): 36.2%
% Elongation of upper stipes, Mean ([2]; ODA 10^-7 M (0.0184 ppm)): 30.9%
% Elongation of upper stipes ([2]; ODA 10^-7 M (0.0184 ppm), rep 1, control 14.5): 27.3%
% Elongation of upper stipes ([2]; ODA 10^-7 M (0.0184 ppm), rep 2, control 11.6): 38.3%
% Elongation of upper stipes ([2]; ODA 10^-7 M (0.0184 ppm), rep 3, control 17.1): 27.2%
% Elongation of upper stipes, Mean ([2]; ODA 10^-8 M (0.00184 ppm)): 30.5%
% Elongation of upper stipes ([2]; ODA 10^-8 M (0.00184 ppm), rep 1, control 14.5): 23.7%
% Elongation of upper stipes ([2]; ODA 10^-8 M (0.00184 ppm), rep 2, control 11.6): 32.7%
% Elongation of upper stipes ([2]; ODA 10^-8 M (0.00184 ppm), rep 3, control 17.1): 35.1%
effect on upper stipe elongation (in words) ([2]; all levels, only when lower portions present): significant effect
